Assay results reported in patent US20250011878A1, “METHOD TO DETECT RNA BIOMARKERS” (ITALFARMACO SPA, priority 2021, published 2025).

Assays:
[1] = clinical data; cited from earlier work
human monocytes = assay: RNAseq gene expression in purified human monocytes treated with ITF3756 and/or TNF-α; format: cell-based
Source text: PBMCs used for the experiments were obtained from Buffy Coats of healthy donors (all samples tested negative for transmissible diseases as required for blood transfusion) separated over a Ficoll-Hypaque gradient (Biochrom). Monocytes were purified by negative selection from 100×10^6 PBMC using Pan Monocytes Isolation Kit (Milteny) following manufacturer's instructions. By Pan Monocyte Isolation kit untouched monocytes are isolated from human PBMCs and the simultaneous enrichment of classical (CD14^++CD16^−), non classical (CD14^+CD16^++) and intermediate (CD14^++CD16^+) monocytes is achieved. Non-monocytes, such as T cells, NK cells, B cells, dendritic cells, and basophils are indirectly magnetically labeled using a cocktail of biotin-conjugated antibodies and anti-Biotin MicroBeads. Briefly, 400 μL of Buffer (PBS 1×, 0.5% BSA and 2 mM EDTA), 100 μL of FcR Blocking Reagent and 100 μL of Biotin-Antibody Cocktail were added to PBMC, previously washed with PBS by centrifugation 300×g for 5 minutes, mixed and incubate for 5 minutes in the refrigerator (2-8° C.). After incubation, 300 μL of Buffer and 200 μL of anti-biotin microbeads were added to the cells, mixed and incubate further for 10 minutes in the refrigerator. After incubation cells were processed by subsequent magnetic cell separation. Cell suspension was applied onto the column and the flow-through containing unlabeled cells, representing the enriched monocytes, was collected. Purified monocytes were washed with Buffer by centrifugation 300×g for 5 minutes and counted in PBS. Purified monocytes (1,0×10^6/ml) were pre-treated for 2 h with ITF3756 1 μM or DMSO (0.005%) in 12-well plates in 1 ml final volume of complete medium (RPMI (Biochrom), FCS 10% and penicillin/streptomycin 1× (Sigma)). The cells were then stimulated or not with TNF-α (100 ng/mL, Peprotech) for 4h. After incubation with ITF3756 and TNF-α, the cells were collected, washed with PBS by centrifugation 300×g for 5 minutes and stored at −80° C. Samples were thawed on the bench for 2 minutes and total RNA was extracted with Trizol reagent (Thermo Fisher Scientific), following manufacturer's instructions. Briefly, Trizol reagent (0.75 ml Trizol per 5-10×10^6 cells) was added to the samples and the samples were incubated at room temperature (RT) for 5 minutes. After incubation, chloroform (150 μL per 0.75 mL Trizol) was added to the samples and after 3 minutes of incubation at RT, samples were centrifuged for 12000×g for 14 minutes at 4° C. After centrifugation, the mixture separates into 3 phases and RNA remains in the aqueous phase. The aqueous phase was removed for each sample and placed in new tubes, and isopropanol (0,375 ml per 0.75 ml of Trizol) was added in each tube. Samples was incubated for 30 minutes in the refrigerator (2-8° C.). After incubation, samples were centrifugated for 12000×g for 10 minutes at 4° C., the supernatant was removed and 75% ethanol (0.75 ml per 0.75 ml of Trizol) was added to samples. Samples were centrifuged for 7500×g for 5 minutes at 4° C., and the supernatant discarded. RNA was air dried on the bench for 5-10 minutes. RNA Samples was then resuspended in water (10-50 μL). The scheme of the experimental procedures carried out to generate the RNA sequence data is represented in FIG. 1. To determine the quantity and the integrity/purity of RNA samples, check controls were first performed by the Agilent Technologies 2100 Bioanalyzer using RNA 6000 LabChip® kit (Agilent #5067-1511). The Bioanalyzer is a bio-analytical device based on a combination of microfluidic chips, voltage-induced size separation in gel filled channels and laser-induced fluorescence (LIF) detection on a miniaturized scale. The RNA Integrity Number (RIN) software algorithm allows the classification of total RNA, based on a numbering system from 1 to 10, (with 1 being the most degraded and 10 being the most intact). […] Purified samples were processed using TruSeq RNA-Seq v2 Library Preparation Kit. […]

[2] = single treatment (ITF3756 1 μM or TNF-α 100 ng/mL), RNAseq, vs control
[3] = single treatment vs vehicle-treated control (don), monocytes 4 h, padj<0.05

Molecule | tolerability in patients [1] | ADA gene expression (human monocytes; [2]) | IRF6 gene expression (human monocytes; [2]) | LTBP4 gene expression (human monocytes; [2]) | MMP9 gene expression (human monocytes; single treatment (ITF3756 1 μM or TNF-α 100 ng/mL), RNAseq, vs untreated control) | PD-L1 gene expression (human monocytes; single treatment (TNF-α 100 ng/mL 4 h), vs control) | Genes Down regulated (number of genes modulated) (human monocytes; [3]) | Genes Up regulated (number of genes modulated) (human monocytes; [3])
O=C(NO)c1ccc(CN(c2cnccn2)c2cnccn2)cc1 [KA2507] | very well tolerated |  |  |  |  |  |  | 
TNF-α [reference compound] |  | upregulation | no effect | downregulated by two fold | No modulation | strongly upregulated | 1688 | 1563
O=C(CCCCCCNC(=O)c1cnc(N(c2ccccc2)c2ccccc2)nc1)NO [Ricolinostat] | very well tolerated |  |  |  |  |  |  | 
